Measured values from patent US20230149401A1 (priority 2020, published 2023).
Read-outs that look alike come from different tables or passages of the source. Residues, ends and D or L forms follow the SMILES beside them.

Legend:
[1] = test system: endogenous furin-like enzymes; assay type: cell-based, Chinese hamster; settings: BHK21 cells; Compound 192/219 at 0.3, 1 or 10 μM, RVKR at 50 μM; 24 h
[2] = test system: endogenous furin-like enzymes; assay type: cell-based, African green monkey; settings: VeroE6 cells; Compound 192/219 at 0.3, 1 or 10 μM, RVKR at 50 μM; 24 h
[3] = test system: endogenous furin-like enzymes; assay type: cell-based, human; settings: A549 cells; Compound 192/219 at 0.3, 1 or 10 μM, RVKR at 50 μM; 24 h
PACE4 (PCSK6) = target: T1, PACE4 (PCSK6) (Homo sapiens, UniProt P29122); assay: Biochemical PC-inhibition assay, substrate FAM-[…]-TAMRA
T1 construct: PACE4 (PCSK6; 150-693-Tev-Flag-6His); Tev site (C); Flag (C); 6His (C); made in house; host or cells: BacMam transduced CHO cells
T1 sequence (P29122 150-693): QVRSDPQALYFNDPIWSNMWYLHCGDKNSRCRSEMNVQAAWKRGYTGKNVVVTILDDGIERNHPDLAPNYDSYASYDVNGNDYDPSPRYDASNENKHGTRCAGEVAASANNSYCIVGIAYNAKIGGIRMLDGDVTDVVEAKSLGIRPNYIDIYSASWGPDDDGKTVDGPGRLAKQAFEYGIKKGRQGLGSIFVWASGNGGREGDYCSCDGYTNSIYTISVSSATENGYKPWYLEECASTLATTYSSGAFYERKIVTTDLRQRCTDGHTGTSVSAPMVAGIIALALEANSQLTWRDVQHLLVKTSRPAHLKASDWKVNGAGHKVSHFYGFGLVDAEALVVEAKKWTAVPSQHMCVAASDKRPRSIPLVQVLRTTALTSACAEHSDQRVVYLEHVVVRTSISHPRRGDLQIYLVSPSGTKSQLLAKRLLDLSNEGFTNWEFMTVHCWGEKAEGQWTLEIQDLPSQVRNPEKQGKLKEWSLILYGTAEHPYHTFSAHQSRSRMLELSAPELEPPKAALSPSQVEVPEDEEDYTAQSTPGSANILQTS
Method: (§1) Biochemical assay: The proprotein convertases furin (108-574-Tev-Flag-6His), PC5A (PCSK5; […]-Tev-Flag-6His), PACE4 (PCSK6; 150-693-Tev-Flag-6His), and PC7 (PCSK7; 142-634-Tev-Flag-6His) enzymes were purified from BacMam transduced CHO cells. […] 0.05 μl of each concentration was transferred to the corresponding well of an assay plate, and then 5 μl of enzyme (furin, PCSK5, PCSK6, and PCSK7) in assay buffer (100 mM HEPES pH 7.5, 1 mM CaCl2) and 0.005% Triton X-100) was added using a Multidrop Combi (Thermo) to the compound plates to give a final protein concentration of 0.02, 0.5, 2.5, and 1.0 nM respectively. The plates were mixed by inversion, and following a 30 min preincubation of enzyme with compound at room temperature (˜22° C.), the substrate FAM-[…] -TAMRA (AnaSpec #808143, 5 μl of a 1, 0.25, 0.20, and 0.5 μM solution in assay buffer for furin, PCSK5, PCSK6, and PCSK7 respectively) was added using a Multidrop Combi to the entire assay plate. The plates were centrifuged at 500×g for 1 minute and incubated at room temperature for two hours. Enzyme inhibition was then quantified using an Envision instrument (PerkinElmer). Data were normalized to maximal inhibition determined by 1 μM Decanoyl-Arg-Val-Lys-Arg-Chloromethylketone (Calbiochem #344930). Golgi imaging assay: This assay uses an image-based platform to evaluate the intracellular activity of furin inhibitors. Reactions were performed in black 384-well, tissue culture-treated, clear bottom plates (Greiner). Compounds under analysis were dissolved in DMSO (1.0 mM) and serially diluted 1 to 3 with DMSO through eleven dilutions. This creates a final compound concentration range from 0.00017 to 10 μM, and 0.1 μL of each concentration was transferred to the corresponding well of the assay plate.

PC5A (PCSK5) = target: T2, PC5A (PCSK5) (Homo sapiens, UniProt Q92824); assay: as above
T2 construct: fused on or other part: C-terminal Tev site, Flag tag and 6His tag
T2 sequence (Q92824 115-601): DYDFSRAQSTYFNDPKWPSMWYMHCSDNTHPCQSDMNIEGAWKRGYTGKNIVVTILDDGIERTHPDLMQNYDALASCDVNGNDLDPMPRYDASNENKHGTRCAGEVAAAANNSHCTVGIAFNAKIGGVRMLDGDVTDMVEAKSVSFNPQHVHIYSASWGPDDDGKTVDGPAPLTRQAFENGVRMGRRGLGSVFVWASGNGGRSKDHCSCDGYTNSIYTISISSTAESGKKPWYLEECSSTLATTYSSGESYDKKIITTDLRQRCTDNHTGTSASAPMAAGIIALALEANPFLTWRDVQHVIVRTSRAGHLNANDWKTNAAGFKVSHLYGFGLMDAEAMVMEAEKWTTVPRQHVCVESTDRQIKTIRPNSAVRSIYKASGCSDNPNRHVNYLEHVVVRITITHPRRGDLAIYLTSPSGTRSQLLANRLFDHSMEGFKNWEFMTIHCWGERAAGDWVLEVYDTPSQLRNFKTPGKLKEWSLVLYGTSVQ
Method: as §1

PC7 (PCSK7) = target: T3, PC7 (PCSK7) (Homo sapiens, UniProt Q16549); assay: as above
T3 construct: PC7 (PCSK7; 142-634-Tev-Flag-6His); Tev site (C); Flag (C); 6His (C); made in house; host or cells: BacMam transduced CHO cells
T3 sequence (Q16549 142-634): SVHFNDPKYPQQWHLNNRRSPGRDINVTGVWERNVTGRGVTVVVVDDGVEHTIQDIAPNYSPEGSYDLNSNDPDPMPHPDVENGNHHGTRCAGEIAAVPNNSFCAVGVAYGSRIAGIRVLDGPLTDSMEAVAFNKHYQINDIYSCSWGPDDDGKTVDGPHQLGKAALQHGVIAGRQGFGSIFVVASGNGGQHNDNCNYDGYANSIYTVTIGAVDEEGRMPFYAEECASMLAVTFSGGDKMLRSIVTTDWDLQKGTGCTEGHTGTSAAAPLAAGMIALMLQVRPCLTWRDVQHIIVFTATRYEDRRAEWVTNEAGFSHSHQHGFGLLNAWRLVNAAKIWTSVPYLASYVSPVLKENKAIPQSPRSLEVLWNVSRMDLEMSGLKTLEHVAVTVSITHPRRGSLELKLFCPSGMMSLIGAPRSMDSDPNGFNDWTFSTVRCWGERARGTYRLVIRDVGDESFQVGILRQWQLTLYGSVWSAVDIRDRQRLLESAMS
Method: as §1

[4] = test system: endogenous furin-like enzymes; assay type: cell-based; settings: HeLa-ACE2 cells
[5] = test system: HeLa cells co-expressing the S-protein with ACE2; assay: Immunocytochemistry of HeLa cells co-expressing S-protein and ACE2 (syncytia, localization); assay type: cell-based; settings: 1 μM
Method: Immunocytochemical analyses of HeLa cells co-expressing the S-protein or μS1/S2 with ACE2 in the absence or presence of 1 μM Compound 192 was also investigated under cell-permeabilization (P; V5 and ACE2 antibodies) and non-permeabilization (NP; S2 and ACE2 antibodies) conditions (FIGS. 14, 15). In the absence of Compound 192, the S-protein and ACE2 co-localized abundantly at the cell surface (FIG. 14-a). HeLa cells expressing both S-protein and ACE2 formed many syncytia, associated with reduced cell surface expression of the S-protein, and an even greater reduction of ACE2 (FIG. 14-b).
Cell culture and transfection were performed on glass coverslips. Cells were washed twice with PBS and fixed with fresh 4% paraformaldehyde for 10 min at room temperature. Following washes, cells were either non-permeabilized or permeabilized with 0.2% Triton X-100 in PBS containing 2% BSA for 5 min, washed, and then blocking was performed with PBS containing 2% BSA for 1 h. Cells were incubated with primary antibodies overnight at 4° C. using an antibody against V5 (mouse monoclonal R960-25; 1:1000; Invitrogen), Spike (mouse monoclonal GTX632604; 1:500; GeneTex) and ACE2 (goat polyclonal AF933; 1:500; RnDsystems). Following wash, corresponding species-specific Alexa-Fluor (488 or 555)-tagged antibodies (Molecular Probes) were incubated for 1 h at room temperature. […]

[6] = test system: SARS-CoV-2 Spike ACE2-dependent cell-to-cell fusion; assay: microbe, parasite or virus in culture; assay type: cell-based; settings: Severe acute respiratory syndrome coronavirus 2; 300 nM
[7] = test system: HIV particles pseudotyped with SARS-CoV-2 S; assay type: cell-based
SARS-CoV-2 [8] = assay: microbe, parasite or virus in culture; assay type: cell-based
SARS-CoV-2 [9] = assay type: cell-based
furin [10] = target: T4, furin (Homo sapiens, UniProt P09958); assay: biochemical
Target sequence in this assay (P09958 108-794): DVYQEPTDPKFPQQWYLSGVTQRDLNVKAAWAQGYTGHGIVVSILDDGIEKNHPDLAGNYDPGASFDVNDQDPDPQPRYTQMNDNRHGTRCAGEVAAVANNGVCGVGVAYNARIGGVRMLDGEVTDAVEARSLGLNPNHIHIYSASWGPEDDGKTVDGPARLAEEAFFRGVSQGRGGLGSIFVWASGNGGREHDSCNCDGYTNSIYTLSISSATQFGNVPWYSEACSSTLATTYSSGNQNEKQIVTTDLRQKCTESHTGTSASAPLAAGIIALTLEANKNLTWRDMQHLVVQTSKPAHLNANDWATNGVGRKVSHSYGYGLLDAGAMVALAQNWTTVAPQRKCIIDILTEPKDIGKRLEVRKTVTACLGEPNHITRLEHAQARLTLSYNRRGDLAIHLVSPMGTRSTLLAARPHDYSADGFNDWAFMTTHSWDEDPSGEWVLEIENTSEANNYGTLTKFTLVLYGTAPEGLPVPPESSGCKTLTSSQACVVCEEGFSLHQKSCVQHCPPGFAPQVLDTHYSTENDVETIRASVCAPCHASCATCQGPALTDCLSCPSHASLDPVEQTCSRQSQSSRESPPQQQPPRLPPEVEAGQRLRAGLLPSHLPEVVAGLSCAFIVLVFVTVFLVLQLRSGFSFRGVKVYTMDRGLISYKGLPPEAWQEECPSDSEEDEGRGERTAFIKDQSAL
Method: Furin and TRMPSS2 fluorogenic assays: Recombinant furin was purchased from BioLegend (#719406), TRMPSS2 from Cusabio and the DABCYLGlu-EDANS labelled peptides encompassing the different cleavage sites (Supplementary Table 1) were purchased from Genscript. Reactions were performed at room temperature in black 384-well polystyrene low volume plates (CELLSTAR-Greiner Bio-One #784476) at a final volume of 15 μL. […] Cleavage of the synthetic peptides was quantitated by determining the increase of EDANS (493 nM) fluorescence following release of the DABCYL quencher, which is excited at 335 nM using a Safire 2 Tecan fluorimeter. The fluorescence was followed during 90 min, and the enzymatic activity was deduced by measurement of the increase of fluorescence during the linear phase of the reaction. Each reaction was performed in triplicate and the standard deviation was calculated using Excel-ecart type function

TMPRSS2 [11] = target: T5, TMPRSS2 (Homo sapiens, UniProt O15393); assay type: cell-based; set-up: expressed in transfected cells; host or cells: HeLa; settings: HeLa cells
T5 sequence (O15393 whole entry): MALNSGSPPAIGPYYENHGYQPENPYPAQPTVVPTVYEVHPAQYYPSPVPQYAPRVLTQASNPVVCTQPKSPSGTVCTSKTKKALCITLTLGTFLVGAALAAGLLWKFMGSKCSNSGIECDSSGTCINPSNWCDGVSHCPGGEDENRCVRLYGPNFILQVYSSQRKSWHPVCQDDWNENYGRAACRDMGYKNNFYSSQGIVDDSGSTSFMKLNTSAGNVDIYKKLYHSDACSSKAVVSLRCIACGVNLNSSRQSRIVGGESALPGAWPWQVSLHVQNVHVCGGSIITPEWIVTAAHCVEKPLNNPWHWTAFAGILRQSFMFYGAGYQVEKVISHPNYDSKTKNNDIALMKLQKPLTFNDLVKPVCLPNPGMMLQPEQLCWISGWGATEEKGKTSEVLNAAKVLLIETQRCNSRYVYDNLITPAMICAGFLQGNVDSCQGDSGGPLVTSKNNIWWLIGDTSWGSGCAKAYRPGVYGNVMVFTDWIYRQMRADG

furin [12] = target: T4, furin; assay: Biochemical PC-inhibition assay, substrate FAM-[…]-TAMRA; set-up: furin (108-574-Tev-Flag-6His); Tev site (C); Flag (C); 6His (C); made in house; host or cells: BacMam transduced CHO cells
Target sequence in this assay (P09958 108-574): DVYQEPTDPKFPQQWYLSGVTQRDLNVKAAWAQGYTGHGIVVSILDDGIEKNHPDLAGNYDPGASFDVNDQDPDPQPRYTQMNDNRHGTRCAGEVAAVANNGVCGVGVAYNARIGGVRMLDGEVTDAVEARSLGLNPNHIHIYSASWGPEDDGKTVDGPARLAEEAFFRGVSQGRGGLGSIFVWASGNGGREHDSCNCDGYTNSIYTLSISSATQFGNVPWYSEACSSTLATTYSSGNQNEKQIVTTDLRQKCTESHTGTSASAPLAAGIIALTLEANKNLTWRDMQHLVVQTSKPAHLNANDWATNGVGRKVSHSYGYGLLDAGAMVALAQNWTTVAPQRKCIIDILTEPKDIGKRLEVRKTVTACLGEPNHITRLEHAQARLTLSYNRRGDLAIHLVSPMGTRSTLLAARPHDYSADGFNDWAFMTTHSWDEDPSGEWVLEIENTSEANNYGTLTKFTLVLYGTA
Method: Biochemical assay: The proprotein convertases furin (108-574-Tev-Flag-6His), PC5A (PCSK5; 115-63-Tev-Flag-6His), PACE4 (PCSK6; 150-693-Tev-Flag-6His), and PC7 (PCSK7; 142-634-Tev-Flag-6His) enzymes were purified from BacMam transduced CHO cells. Reactions were performed in black 384-well polystyrene low volume plates (Greiner) at a final volume of 10 μL. […] The plates were centrifuged at 500×g for 1 minute and incubated at room temperature for two hours. Enzyme inhibition was then quantified using an Envision instrument (PerkinElmer). Data were normalized to maximal inhibition determined by 1 μM Decanoyl-Arg-Val-Lys-Arg-Chloromethylketone (Calbiochem #344930).

TMPRSS2 [13] = target: T5, TMPRSS2; settings: HeLa-ACE2 cells, 120 μM
Method: HeLa-ACE2 cells were transiently transfected with empty vector (V) or increasing cDNA ratios of V5-tagged WT spike protein to TMPRSS2 (spike-V5:TMPRSS2) as indicated and 24 h later incubated for an additional 24 h in serum-free media containing 120 μM Camostat (+) or control DMSO (−) (FIG. 12A). Immunoblot of the 24 h conditioned media (concentrated 10-fold) was first probed for S1 and S1′ using an antibody against S1-subunit (GTX135356), stripped and next probed for sACE2 (ab108252) and mature TMPRSS2m (14437-1-AP) (upper panel). Cell lysates were immunoblotted for spike protein (V5-mAb), ACE2 (ab108252) and β-Actin (lower panel). HeLa-ACE2 cells were transiently transfected for 48 h with empty vector (V), TMPRSS2, and V5-tagged spike protein (S) alone or in combination with TMPRSS2 (S+TMPRSS2) in a ratio of 1:0.7 (FIG. 12B). For each condition, 1 ml of 24h serum free conditioned media was immunoprecipitated with 2 μg goat polyclonal ACE2 antibody (AF933, R&D) and 60 μl TrueBlot anti-goat Ig IP beads (00-8844-25; Rockland) and analyzed by western blot first for S1 and S1′ (GTX135356) and next for sACE2 (rabbit MAB; ab108252) (upper right panels). For reference, 50% of the media before immunoprecipitation (concentrated 10-fold) (input) was similarly analyzed (upper left panels). Immunoblots of the cell lysates (spike protein: V5-mAb) are also shown (lower panels).
To confirm that S2a, and S2b are generated by TMPRSS2 activity in the ER, HeLa-ACE2 cells were incubated with 120 μM Camostat, known to inhibit TMPRSS2.

endogenous furin = target: T6, endogenous furin (Homo sapiens, UniProt P09958); assay: Cell-based Golgi imaging assay of U2OS cells (BMP10-mimic cleavage)
T6 construct: the endogenous protease cleaves GFP from its N-acetylgalactosaminyltransferase-2 Golgi tether; endogenous in cells; host or cells: U2OS
T6 sequence (P09958 108-794): as the sequence (P09958 108-794) above
Method: Biochemical assay: The proprotein convertases furin (108-574-Tev-Flag-6His), PC5A (PCSK5; […]-Tev-Flag-6His), PACE4 (PCSK6; 150-693-Tev-Flag-6His), and PC7 (PCSK7; 142-634-Tev-Flag-6His) enzymes were purified from BacMam transduced CHO cells. […] 0.05 μl of each concentration was transferred to the corresponding well of an assay plate, and then 5 μl of enzyme (furin, PCSK5, PCSK6, and PCSK7) in assay buffer (100 mM HEPES pH 7.5, 1 mM CaCl2) and 0.005% Triton X-100) was added using a Multidrop Combi (Thermo) to the compound plates to give a final protein concentration of 0.02, 0.5, 2.5, and 1.0 nM respectively. […] Enzyme inhibition was then quantified using an Envision instrument (PerkinElmer). Data were normalized to maximal inhibition determined by 1 μM Decanoyl-Arg-Val-Lys-Arg-Chloromethylketone (Calbiochem #344930). […]
Cellular assay: Analyses were initiated by the addition of U2OS cells simultaneously transduced with a BacMam-delivered construct containing a Golgi-targeting sequence followed by a 12-amino acid furin/PCSK cleavage site from Bone Morphogenic Protein 10 (BMP10) and then GFP at the C terminus. […] In the absence of a furin/PCSK inhibitor, the endogenous protease cleaves GFP from its N-acetylgalactosaminyltransferase-2 Golgi tether, releasing GFP into the Golgi lumen where fluorescence is diluted below the threshold of assay sensitivity. […]

Row | Structure (SMILES) | Inhibition of processing of pro-(S) protein to active (S)-protein [1] | Inhibition of processing of pro-(S) protein to active (S)-protein [2] | Inhibition of processing of pro-(S) protein to active (S)-protein [3] | IC50 (PACE4 (PCSK6)) [nM] | IC50 (PC5A (PCSK5)) [nM] | IC50 (PC7 (PCSK7)) [nM] | S1/S2 and S2′ processing by endogenous furin-like enzymes [4] | inhibition at 0.3 µM [6] [%] | Viral entry in Calu-3 of pseudovirions packaged in presence of inhibitor [7] | Antiviral effects and selectivity index relative to Compound 93 (SARS-CoV-2 [8]) | SARS-CoV-2 infection in Calu-3 cells (virus titers) (SARS-CoV-2 [8]) | Viral replication, inhibitors individually (SARS-CoV-2 [8]) | Viral titers at 12, 24 and 48h post-infection (SARS-CoV-2 [8]) | Virus production in infected Vero E6 cells (SARS-CoV-2 [9]) | Generation of S2a and S2b by TMPRSS2 (TMPRSS2 [11]) | IC50 (furin [12]) [nM] | also measured
1 | CC(=O)NCC1CCN(Cc2cc(Oc3cnc(N4CCN(CCC(C)C(=O)O)CC4)nc3)nc(-c3cc(Cl)cc(Cl)c3)c2)CC1 (stereo not shown) [Compound 192, 4-(4-(5-((4-((4-(acetamidomethyl)piperidin-1-yl)methyl)-6-(3,5-dichloro-phenyl)pyridin-2-yl)oxy)pyrimidin-2-yl)piperazin-1-yl)-2-methylbutanoic acid] | Inhibition was observed | somewhat | less inhibition | ~7 | ~7 | ~7 | blocked | > 60 | block viral entry | comparable | strongly reduce | meaningfully reduce viral replication | significantly decreased | modestly reduce virus production | none of the compounds affected | ~7 | Inhibition of S1/S2 and S2′ processing ([4]; 300 nM): almost complete inhibition; Phenotype of S-expressing HeLa cells (syncytia, S and ACE2 localization) [5]: phenocopy those expressing μS1/S2; IC50 (furin [10]): 4 ± 0.7 nM
2 | CN(C)C(=O)COC(=O)Cc1ccc(OC(=O)c2ccc(NC(=N)N)cc2)cc1 [Camostat] |  |  |  |  |  |  |  |  |  |  |  | meaningfully reduce viral replication |  |  |  |  | Generation of S1′ (TMPRSS2 [13]): in large part; Generation of sACE2 (TMPRSS2 [13]): inhibited; Formation of S2a and S2b (TMPRSS2 [13]; increasing TMPRSS2): prevented
3 | CCCCCCCCCC(=O)N[C@@H](CCCNC(=N)N)C(=O)N[C@H](C(=O)N[C@@H](CCCCN)C(=O)N[C@@H](CCCNC(=N)N)C(=O)CCl)C(C)C [RVKR-cmk, Decanoyl-Arg-Val-Lys-Arg-CMK, reference compound] (HELM PEPTIDE1{[CCCCCCCCCC(=O)[*:2]].R.V.K.R.[ClC[*:1]]}$$$$V2.0) |  |  |  | ~9 | ~9 | ~9 |  |  |  |  |  |  |  |  |  | ~9 | IC50 (endogenous furin): 5 nM
4 | CC(=O)NCC1CCN(Cc2cc(Oc3ccc(N4CCN(CCC(=O)O)CC4)nc3)nc(-c3cc(Cl)cc(Cl)c3)c2)CC1 [Compound 219, 3-(4-(5-((4-((4-(acetamidomethyl)piperidin-1-yl)methyl)-6-(3,5-dichlorophenyl)pyridin-2-yl)oxy)pyridin-2-yl)piperazin-1-yl)propanoicacid] | Inhibition was observed | somewhat | less inhibition | ~7 | ~7 | ~7 | blocked | > 60 | block viral entry | comparable | strongly reduce |  | significantly decreased | modestly reduce virus production | none of the compounds affected | ~7 | 
